Experimental data as given in patent publication US11643439B2, “Multi-target compound with anticoagulation and antiplatelet activity, preparation method therefor, and use thereof” (SHAANXI MICOT TECHNOLOGY LIMITED COMPANY, priority 2015, dated 2023).
Marks after values point to notes of the source that are not given here.

How the values were obtained:
whole blood coagulation [1] = experiment: ACT in rabbits, intravenous maintenance administration; assay type: in vivo, rabbit
Protocol: 2. Grouping and administration: 10 rabbits were randomly divided into 3 groups, […]. 1) Sham operation group (NS): Intravenous injection of the same volume of physiological saline, with the same operation method as above; 2) polypeptide 2 administration group: 8.0 mg/kg+20.0 mg/kg/h; 3) positive control enoxaparin group: 50 U/kg+150 U/kg/h. According to the body weight in kilograms of the rabbits, the first dose of the drug to be tested was dissolved in 2 mL of physiological saline for single bolus injection. The maintaining dose was dissolved in 9 ml of physiological saline, and placed in a double-channel micro-injection pump, which was dripped off within 90 minutes at a dripping speed of […]. The sham operation group was administered with the same volume of physiological saline. […]

[2] = test system: thrombin-induced pulmonary embolism; experiment: Thrombin-induced pulmonary embolism in mice; assay type: in vivo, mouse; conditions: thrombin 1500 u/kg; for Mortality rate: within 15 min
Protocol: Mice were randomly divided into 7 groups with 10 mice per group, in which group 1 was physiological saline group, group 2 was model control group, group 3 was positive control group of enoxaparin 0.5 mg/kg, group 4 was positive control group of bivalirudin 8 mg/kg, group 5 was low dose group of polypeptide 2 at 2.5 mg/kg, group 6 was medium dose group of polypeptide 2 at 5.0 mg/kg, and group 7 was high dose group of polypeptide 2 at 10.0 mg/kg. Except that physiological saline group and model control group were subjected to tail intravenous injection of 200 μl physiological saline, the other groups were given according to the doses, respectively. After 2 min, the mice in physiological saline group were administered with 100 μl physiological saline through tail intravenous injection and the other groups were each administered with 100 μl thrombin based on 1500 u/kg (80% to 90% of the lethal dose) through tail intravenous injection. The mice were observed after the administration for their death within 15 min.
(1) Recording mortality rate: the death status of mice with acute pulmonary embolism mice within 15 min was recorded and the survival time was recorded, to calculate the mortality rate;
(2) Determining lung coefficient: immediately after death, the bronchial and adipose tissues were dissected away from the lung tissue, and the lung tissue was washed with distilled water, and weighed for the lung weight after soaking up the water on the surface of the lung with a filter paper. The lung was taken out and weighed, to calculate the lung coefficient. Lung coefficient=Lung weight/Body weight×100%;
The lung was immediately dissected and taken out and weighed to determine the lung coefficient.

whole blood coagulation [3] = experiment: ACT in rabbits, single intravenous administration; assay type: in vivo, rabbit
Protocol: (§1) 1. Grouping and administration: 48 Rabbits were randomly divided into 6 groups, 8 rabbits per group. 1) Sham operation group (NS): Intravenous injection of the same volume of physiological saline; 2) positive control bivalirudin group (6 mg/kg); 3) positive control enoxaparin group (200 U/kg); 4) Low dose group of polypeptide 2 (3.0 mg/kg); 5) Medium dose group of polypeptide 2 (6.0 mg/kg); 6) High dose group of polypeptide 2 (12.0 mg/kg). Polypeptide 2 was administered by single intravenous administration. According to the body weight in kilograms of the rabbits, the sample was dissolved in 2 mL of physiological saline for single bolus injection. The sham operation group was administered with the same volume of physiological saline.
3.3 Determination of ACT: At 0 min before administration and at points of administration for 5 min and 15 min, the whole blood was taken, to which kaolin was added, and placed in a water bath at 37° C. to record the whole blood coagulation time.

platelet aggregation = experiment: Platelet aggregation in rabbits, single intravenous administration; assay type: in vivo, rabbit
Protocol: as §1
3.1 Platelet aggregation rate: 2.7 ml of blood was taken from the femoral vein, rapidly injected into a centrifuge tube containing 0.3 ml of 3.8% sodium citrate solution, and fully mixed well. The resulted blood samples were centrifuged at 810 rpm (100 g) for 8 min to obtain PRP, which was taken out and centrifuged at 3500 rpm (1863 g) for 8 min to obtain PPP, which was used to determine platelet aggregation.
Blood samples were taken at a point before administration (0 min), and at points of administration for 5 min and 15 min, respectively, to determine the platelet aggregation rate, which was used to calculate the inhibitory rate of platelet aggregation with a calculation equation as follows: […]

[4] = test system: blood coagulation function; experiment: PT in rabbits, intravenous maintenance administration; assay type: in vivo, rabbit
Protocol: 2. Grouping and administration: 10 rabbits were randomly divided into 3 groups, 2 to 3 rabbits per group. 1) Sham operation group (NS): Intravenous injection of the same volume of physiological saline, with the same operation method as above; 2) polypeptide 2 administration group: 8.0 mg/kg+20.0 mg/kg/h; 3) positive control enoxaparin group: 50 U/kg+150 U/kg/h. According to the body weight in kilograms of the rabbits, the first dose of the drug to be tested was dissolved in 2 mL of physiological saline for single bolus injection. The maintaining dose was dissolved in 9 ml of physiological saline, and placed in a double-channel micro-injection pump, which was dripped off within 90 minutes at a dripping speed of […]. The sham operation group was administered with the same volume of physiological saline.
4.2 Determination of blood coagulation function: Blood samples were taken and the blood function (PT, APTT) was determined at 0 min before administration, at points of 30 min, 60 min, 90 min after administration, and at points of 60 min, 120 min and 180 min after termination of administration, using a platelet-aggregation coagulation factor analyzer. Blood samples were centrifuged at 3510 rpm for 8 min to obtain platelet poor plasma (PPP). Reagent reconstruction and preservation were performed according to the operation requirements of the kit. Immediately after each blood sample was placed into a test cup and then added with PT, TT and APTT reagents, the test was started. After the test was completed, results were recorded.

[5] = iv 8.0 + 20.0 (mg/kg+mg/kg/h), Administration 30 min
[6] = iv 8.0 + 20.0 (mg/kg+mg/kg/h), Administration 60 min
[7] = iv 8.0 + 20.0 (mg/kg+mg/kg/h), Administration 90 min
[8] = iv 8.0 + 20.0 (mg/kg+mg/kg/h), Before administration
[9] = iv 8.0 + 20.0 (mg/kg+mg/kg/h), Termination 120 min
[10] = iv 8.0 + 20.0 (mg/kg+mg/kg/h), Termination 180 min
[11] = single iv 3.0 mg/kg, Administration for 5 min
[12] = single iv 3.0 mg/kg, Administration for 15 min
[13] = single iv 6.0 mg/kg, Administration for 5 min
[14] = single iv 6.0 mg/kg, Administration for 15 min
[15] = single iv 6.0 mg/kg, After administration 5 min
[16] = single iv 6.0 mg/kg, After administration 15 min
[17] = single iv 6.0 mg/kg, Before administration
[18] = single iv 12.0 mg/kg, Administration for 5 min
[19] = single iv 12.0 mg/kg, Administration for 15 min
[20] = iv 50 U + 150 U, Administration 30 min
[21] = iv 50 U + 150 U, Administration 60 min
[22] = iv 50 U + 150 U, Administration 90 min
[23] = iv 50 U + 150 U, Before administration
[24] = iv 50 U + 150 U, Termination 60 min
[25] = iv 50 U + 150 U, Termination 120 min
[26] = iv 50 U + 150 U, Termination 180 min
[27] = single iv 200 (U/kg), Administration for 5 min
[28] = single iv 200 (U/kg), Administration for 15 min

Substance: D-Phe Pro Arg Pro Gly Gly Gly Gly Asn Gly Asp Phe Glu Glu Ile Pro Glu Glu Tyr Leu Glu Ala Ala Ala Lys Cys Har Gly Asp Trp Pro Cys [Polypeptide 2]
- ACT (whole blood coagulation [1]; [5]): 330.0 ± 63.6 S
- ACT (whole blood coagulation [1]; [6]): 277.5 ± 31.8 S
- ACT (whole blood coagulation [1]; [7]): 300.0 ± 63.6 S
- ACT (whole blood coagulation [1]; [8]): 217.5 ± 95.5 S
- ACT (whole blood coagulation [1]; [9]): 172.5 ± 31.8 S
- ACT (whole blood coagulation [1]; [10]): 112.5 ± 74.2 S
- Lung coefficient ([2]; tail iv 2.5 mg/kg): 0.94 ± 0.16 g/100 g
- Number of platelets ([2]; tail iv 2.5 mg/kg): 165.33 ± 20.2 ×10^9
- Mortality rate ([2]; tail iv 2.5 mg/kg, 2.5 mg/kg): 60 ^ %
- Mortality rate ([2]; tail iv 2.5 mg/kg, listed as polypeptide 2, 2.5 mg/kg): 60%
- Lung coefficient ([2]; tail iv 5.0 mg/kg): 1.08 ± 0.27 g/100 g
- Number of platelets ([2]; tail iv 5.0 mg/kg): 207.83 ± 33.09 ×10^9
- Mortality rate ([2]; tail iv 5.0 mg/kg, 5 mg/kg): 30**^# %
- Mortality rate ([2]; tail iv 5.0 mg/kg, listed as polypeptide 2, 5 mg/kg): 30%
- Lung coefficient ([2]; tail iv 10.0 mg/kg): 0.83 ± 0.14 g/100 g
- Number of platelets ([2]; tail iv 10.0 mg/kg): 529.57 ± 104.28 ×10^9
- Mortality rate ([2]; tail iv 10.0 mg/kg, 10 mg/kg): 10**^# %
- Mortality rate ([2]; tail iv 10.0 mg/kg, listed as polypeptide 2, 10 mg/kg): 10%
- ACT (whole blood coagulation [3]; [11]): 352.5 ± 40.7^¥ s
- ACT (whole blood coagulation [3]; [12]): 337.5 ± 27.8*^¥ s
- ACT fold of prolongation (whole blood coagulation [3]; single iv 3.0 mg/kg, After administration 5 min): 1.0 ± 0.2
- ACT fold of prolongation (whole blood coagulation [3]; single iv 3.0 mg/kg, After administration 15 min): 1.0 ± 0.1
- ACT (whole blood coagulation [3]; single iv 3.0 mg/kg, Before administration): 357.5 ± 27.7 s
- ACT (whole blood coagulation [3]; [13]): 356.3 ± 35.3^¥ s
- ACT (whole blood coagulation [3]; [14]): 324.4 ± 24.1*^¥ s
- ACT fold of prolongation (whole blood coagulation [3]; [15]): 1.7 ± 0.7
- ACT fold of prolongation (whole blood coagulation [3]; [16]): 1.6 ± 0.9
- ACT (whole blood coagulation [3]; [17]): 232.5 ± 24.0 s
- ACT (whole blood coagulation [3]; [18]): 505.6 ± 35.3*^¥&@ s
- ACT (whole blood coagulation [3]; [19]): 418.1 ± 24.1*^¥ s
- ACT fold of prolongation (whole blood coagulation [3]; single iv 12.0 mg/kg, After administration 5 min): 1.7 ± 0.6
- ACT fold of prolongation (whole blood coagulation [3]; single iv 12.0 mg/kg, After administration 15 min): 1.4 ± 0.3
- ACT (whole blood coagulation [3]; single iv 12.0 mg/kg, Before administration): 315.0 ± 24.0 s
- inhibitory rate of platelet aggregation (platelet aggregation; [11]): 17.2 ± 6.7%
- inhibitory rate of platelet aggregation (platelet aggregation; [12]): 6.3 ± 7.0%
- inhibitory rate of platelet aggregation (platelet aggregation; [13]): 47.5 ± 5.8*^#¥& %
- inhibitory rate of platelet aggregation (platelet aggregation; [14]): 15.4 ± 6.0%
- inhibitory rate of platelet aggregation (platelet aggregation; [18]): 72.5 ± 6.2*#^¥&@ %
- inhibitory rate of platelet aggregation (platelet aggregation; [19]): 46.0 ± 6.5*^#¥&@ %
- PT [4, 5]: 12.7 ± 0.5 S
- PT [4, 6]: 9.4 ± 2.0 S
- PT [4, 7]: 11.6 ± 1.3 S
- PT [4, 8]: 7.7 ± 1.8 S
- PT ([4]; iv 8.0 + 20.0 (mg/kg+mg/kg/h), Termination 60 min): 7.7 ± 0.0 S
- PT [4, 9]: 7.1 ± 1.8 S
- PT [4, 10]: 7.4 ± 1.3 S

Substance: Bivalirudin: Bivalirudin for Injection, Xi'an Xintong Pharmaceutical Research Co., Ltd.; positive control thrombin inhibitor
- Lung coefficient ([2]; tail iv 8.0 mg/kg): 0.99 ± 0.07 g/100 g
- Number of platelets ([2]; tail iv 8.0 mg/kg): 411.89 ± 175.52 ×10^9
- Mortality rate ([2]; tail iv 8.0 mg/kg, 8 mg/kg): 10**^## %
- Mortality rate ([2]; tail iv 8.0 mg/kg, listed as bivalirudin, 8 mg/kg): 10%
- ACT (whole blood coagulation [3]; [13]): 443.8 ± 35.3 s
- ACT (whole blood coagulation [3]; [14]): 375.0 ± 24.1*^ s
- ACT fold of prolongation (whole blood coagulation [3]; [15]): 1.5 ± 0.3
- ACT fold of prolongation (whole blood coagulation [3]; [16]): 1.3 ± 0.4
- ACT (whole blood coagulation [3]; [17]): 305.6 ± 24.0 s
- inhibitory rate of platelet aggregation (platelet aggregation; [13]): 5.2 ± 5.8%
- inhibitory rate of platelet aggregation (platelet aggregation; [14]): 4.6 ± 6.0%

Substance: Enoxaparin
- ACT (whole blood coagulation [1]; [20]): 225.0 S
- ACT (whole blood coagulation [1]; [21]): 375.0 S
- ACT (whole blood coagulation [1]; [22]): 270.0 S
- ACT (whole blood coagulation [1]; [23]): 180.0 S
- ACT (whole blood coagulation [1]; [24]): 210 S
- ACT (whole blood coagulation [1]; [25]): 195.0 S
- ACT (whole blood coagulation [1]; [26]): 225.0 S
- Mortality rate ([2]; tail iv 0.5 mg/kg): 10%
- Lung coefficient ([2]; tail iv 250 IU/kg): 1.02 ± 0.33 g/100 g
- ACT (whole blood coagulation [3]; [27]): 915.0 ± 37.7 s
- ACT (whole blood coagulation [3]; [28]): 610.7 ± 25.7 s
- ACT fold of prolongation (whole blood coagulation [3]; single iv 200 (U/kg), After administration 5 min): 3.4 ± 1.1
- ACT fold of prolongation (whole blood coagulation [3]; single iv 200 (U/kg), After administration 15 min): 2.2 ± 0.7
- ACT (whole blood coagulation [3]; single iv 200 (U/kg), Before administration): 285.0 ± 25.6 s
- inhibitory rate of platelet aggregation (platelet aggregation; [27]): 9.5 ± 6.2%
- inhibitory rate of platelet aggregation (platelet aggregation; [28]): 16.1 ± 6.5%
- PT [4, 20]: 10.4 S
- PT [4, 21]: 10.4 S
- PT [4, 22]: 11.3 S
- PT [4, 23]: 9.4 S
- PT [4, 24]: 8.2 S
- PT [4, 25]: 8.1 S
- PT [4, 26]: 7.6 S
